In patent US10463651B2, “3-(1H-pyrrolo[3,2-C]pyridin-2-YL)-1H-indazoles and therapeutic uses thereof” (Samumed, LLC, priority 2015, dated 2019):

Experiments:
Assay type in all cases: cell-based
IL-6 (THP-1 cells) = assay: IL-6 inhibition in LPS-stimulated THP-1 cells (HTRF); details: Homo sapiens; IL6 by HTRF, THP-1 cells, 500 ng/mL LPS, 22 hours
Description: THP-1 cells were cultured in basal media with 1% FBS for 24 hours before the start of the assay. […] THP-1 cells were plated at 5000 cells/well in the 384-well plates and incubated at 37° C. for 2 h. 500 ng/mL of LPS was added after 2 hours and cells were incubated for another 22 hours at 37° C. Plates were spun in a centrifuge for 1 minute at […] and a mixture of anti-IL6 XL665, and anti-IL6 Cryptate diluted in reconstitution buffer (Cisbio Inc.) was added to each well. Following incubation for 3 hrs at room temperature, Homogeneous Time-Resolved Fluorescence (HTRF) was measured using the Envision (Perkin Elmer) at 665 nm and […]. The ratio of fluorescence at 665 nm to 620 nm was used as a readout for IL6 quantification. All samples were processed in duplicate. Readings were normalized to DMSO treated cells and normalized activities were utilized for EC50 calculations using the dose-response log (inhibitor) vs. response-variable slope (four parameters) nonlinear regression feature available in GraphPad Prism 5.0 (or Dotmatics).

[1] = system: primary human fibroblasts derived from IPF patients (LL29 cells) treated with TGF-β1; assay: Inhibition of the fibrotic process (αSMA staining) in TGF-β1-treated fibroblasts; details: Fibroblast, 96 h; for EC50: % αSMA-positive LL29 cells, TGF-β1 20 ng/mL, 4 days
Description: Representative compounds were screened using primary human fibroblasts (derived from IPF patients) treated with TGF-β1 to determine their ability to inhibit the fibrotic process.
LL29 cells are plated at 1,500 cells/well in 80 μL/well F12 medium supplemented with 1% Fetal Bovine Serum. […] Wells treated with TGF-P1 and containing DMSO were used as controls. […] Following incubation for 4 days, SYTOX green nucleic acid stain (Life Technologies [Thermo Fisher Scientific]) was added to the wells at a final concentration of 1 μM and incubated at room temperature for 30 min.

SW480 colon cancer cells = assay: Cell viability assay (CellTiter-Blue); details: Homo sapiens; for EC50: 96 h, SW480 cell viability, four days, CellTiter-Blue
Description: Representative compounds were screened using the following assay procedure to assess the effect on cell viability as described below.
Approximately 2×10^3 SW480 colon cancer cells were seeded into each well and allowed to incubate in the presence or absence of compound for four days at 37° C./5% CO2. Eight replicates of DMSO-treated cells served as controls and cells treated with compound were performed in duplicate.
After incubation, 20 μL of CellTiter-Blue (Promega) was added to each well allowed to incubate for approximately 3 hours. This reagent was a buffered solution which contains resazurin, metabolically active cells were able to reduce rezarurin (blue) into resorufin (pink) which was highly fluorescent. This measured fluorescence was used as a readout for cell viability.

[2] = system: Wnt activity (Sp5-Luc reporter, SW480 colon carcinoma cells); assay: Screening assay for Wnt activity (Sp5-Luc reporter gene assay in SW480 cells); details: Homo sapiens; for EC50: Sp5-Luc reporter, SW480 cells, incubated overnight
From the text: The screening assay for Wnt activity is described as follows. Reporter cell lines can be generated by stably transducing cancer cell lines (e.g., colon cancer) or primary cells (e.g., IEC-6 intestinal cells) with a lentiviral construct that includes a Wnt-responsive promoter driving expression of the firefly luciferase gene.
SW480 colon carcinoma cells were transduced with a lentiviral vector expressing luciferase with a human Sp5 promoter consisting of a sequence of eight TCF/LEF binding sites. SW480 cells stably expressing the Sp5-Luc reporter gene and a hygromycin resistance gene were selected by treatment with 150 μg/mL of hygromycin for 7 days. These stably transduced SW480 cells were expanded in cell culture and used for all further screening activities. […] For Sp5-Luc reporter gene assays, the cells were plated at 4,000 cells/well in 384-well plates with medium containing 1% fetal bovine serum and incubated overnight at 37° C. and 5% CO2. Following incubation, 20 μl of BrightGlo luminescence reagent (Promega) was added to each well of the 384-well assay plates. The plates were placed on an orbital shaker for 2 min and then luminescence was quantified using the Envision (Perkin Elmer) plate reader. Readings were normalized to DMSO only treated cells, and normalized activities were utilized for EC50 calculations using the dose-response log (inhibitor) vs. response-variable slope (four parameters) nonlinear regression feature available in GraphPad Prism 5.0 (or Dotmatics).

`O=C(Nc1cncc(-c2ccc3[nH]nc(-c4cc5c(-c6ccc(F)cc6)nccc5[nH]4)c3c2)c1)c1ccccc1` [Compound 39, N-(5-(3-(4-(4-Fluorophenyl)-1H-pyrrolo[3,2-c]pyridin-2-yl)-1H-indazol-5-yl)pyridin-3-yl)benzamide] showed an EC50 (IL-6 (THP-1 cells)) of 3460 nM, an EC50 [1] of 501 nM and an EC50 (SW480 colon cancer cells) of 540 nM. For the same compound, the EC50 [2] was 1610 nM.
For `CN1CCN(c2nccc3[nH]c(-c4n[nH]c5ccc(-c6cncnc6)cc45)cc23)CC1` [Compound 251, 3-(4-(4-Methylpiperazin-1-yl)-1H-pyrrolo[3,2-c]pyridin-2-yl)-5-(pyrimidin-5-yl)-1H-indazole], the EC50 (IL-6 (THP-1 cells)) was 8260 nM, the EC50 [1] was 9700 nM and the EC50 (SW480 colon cancer cells) was over 10000 nM. The inhibition at 10 µM (SW480 colon cancer cells; SW480, 96 h, read-out: percent inhibition at 10 μM) was 20%, the inhibition at 10 µM ([2]; SW480, read-out: percent inhibition at 10 μM) was 20.2% and the EC50 [2] was over 10000 nM.
`Fc1ccccc1-c1nccc2[nH]c(-c3n[nH]c4ccc(-c5cncc(OC6CCNCC6)c5)cc34)cc12` [Compound 544, 3-(4-(2-Fluorophenyl)-1H-pyrrolo[3,2-c]pyridin-2-yl)-5-(5-(piperidin-4-yloxy)pyridin-3-yl)-1H-indazole] showed an EC50 (IL-6 (THP-1 cells)) of 2490 nM, an EC50 [1] of over 10000 nM and an inhibition at 10 µM ([1]; read-out: percent inhibition at 10 μM) of 0%. It also gave an EC50 (SW480 colon cancer cells) of 2620 nM and an EC50 [2] of 2340 nM.
Compound `CC(C)(C)C(=O)Nc1cncc(-c2ccc3[nH]nc(-c4cc5c(-c6ccc(F)cc6)nccc5[nH]4)c3c2)c1` [Compound 36, N-(5-(3-(4-(4-Fluorophenyl)-1H-pyrrolo[3,2-c]pyridin-2-yl)-1H-indazol-5-yl)pyridin-3-yl)pivalamide] has an EC50 (IL-6 (THP-1 cells)) of 207 nM, an EC50 [1] of 745 nM and an EC50 (SW480 colon cancer cells) of 659 nM. For the same compound, the EC50 [2] was 742 nM.
With `c1cc2[nH]c(-c3n[nH]c4ccc(-c5cncc(OC6CCCCC6)c5)cc34)cc2c(N2CCCCC2)n1` [Compound 607, 5-(5-(Cyclohexyloxy)pyridin-3-yl)-3-(4-(piperidin-1-yl)-1H-pyrrolo[3,2-c]pyridin-2-yl)-1H-indazole] the EC50 (IL-6 (THP-1 cells)) was 1050 nM, the EC50 [1] was 487 nM and the EC50 (SW480 colon cancer cells) was 1500 nM. For the same compound, the EC50 [2] was 1140 nM.
Work on `CC(C)CC(=O)Nc1cncc(-c2ccc3[nH]nc(-c4cc5c(N6CCN(C)CC6)nccc5[nH]4)c3c2)c1` [Compound 226, 3-Methyl-N-(5-(3-(4-(4-methylpiperazin-1-yl)-1H-pyrrolo[3,2-c]pyridin-2-yl)-1H-indazol-5-yl)pyridin-3-yl)butanamide] yielded an EC50 (IL-6 (THP-1 cells)) of 1420 nM, an EC50 [1] of 2960 nM and an EC50 (SW480 colon cancer cells) of 2870 nM. The EC50 [2] was 1900 nM.
In the case of `Fc1cccc(-c2nccc3[nH]c(-c4n[nH]c5ccc(C6CCNCC6)cc45)cc23)c1` [Compound 505, 3-(4-(3-Fluorophenyl)-1H-pyrrolo[3,2-c]pyridin-2-yl)-5-(piperidin-4-yl)-1H-indazole], the EC50 (IL-6 (THP-1 cells)) is reported as 723 nM, the EC50 [1] is reported as 3320 nM and the EC50 (SW480 colon cancer cells) is reported as 3840 nM. For the same compound, the EC50 [2] was 3590 nM.
For `CS(=O)(=O)NCc1cc(F)cc(-c2nccc3[nH]c(-c4n[nH]c5ccc(-c6cncc(NC(=O)C7CCC7)c6)cc45)cc23)c1` [Compound 497, N-(5-(3-(4-(3-Fluoro-5-(methylsulfonamidomethyl)phenyl)-1H-pyrrolo[3,2-c]pyridin-2-yl)-1H-indazol-5-yl)pyridin-3-yl)cyclobutanecarboxamide], the EC50 (IL-6 (THP-1 cells)) was 27 nM, the EC50 [1] was 599 nM and the EC50 (SW480 colon cancer cells) was 492 nM. It also gave an EC50 [2] of 188 nM.
For `NC1CN(c2cncc(-c3ccc4[nH]nc(-c5cc6c(N7CCCCC7)nccc6[nH]5)c4c3)n2)C1` [Compound 606, 1-(6-(3-(4-(Piperidin-1-yl)-1H-pyrrolo[3,2-c]pyridin-2-yl)-1H-indazol-5-yl)pyrazin-2-yl)azetidin-3-amine], the EC50 (IL-6 (THP-1 cells)) was 66 nM, the EC50 [1] was 236 nM and the EC50 (SW480 colon cancer cells) was 2780 nM. For the same compound, the EC50 [2] was 1760 nM.
